Laboratory results taken from patent US20060258754A1, “Method of treating endothelial dysfunction, oxidative stress and related diseases” (priority 2004, published 2006).
“Also recorded” adds a separate entry of the source.

Tests used:
[1] = test system: DNA; conditions: pro-oxidant potential; cited from earlier work
[2] = test system: vascular mesenteric bed; experiment: Rat arteriolar mesenteric bed: acetylcholine-evoked decrease in perfusion pressure after 4-week oral treatment; type: in vivo, alloxan-diabetic male Wistar rats; conditions: chronic (4-week) oral administration, highest acetyl choline concentrations, FIG. 4
Procedure: Male Wistar rats, weighing between 230-250 g, fed regular chow, with free access to water were separated in four groups (n=10/each). The first two groups, termed normoglycemic, were treated with saline (0.1 mL/100 g/12 h) by the oral route (intragastric gavage) or untreated for four weeks. The second two groups, hyperglycemic, were treated with saline (0.1 mL/100 g/12 h) or treated with D-chiro-inositol (20 mg/kg/12 h) under the same protocol. […] Diabetes was induced by a single intravenous injection of 45 mg/kg alloxan as described by Sannomiya et al., 1997 ( ). Diabetes was diagnosed 96 h after injection by blood glucose assay >200 mg/dL. All protocols were approved by the local committee and follow the Guide for the Care and Use of Laboratory Animals published by the US National Institutes of Health (NIH Publication No. 85-23, revised 1996).
The mesentery was carefully removed by cutting close to the intestinal border with a small scissors. […] The vascular bed was rapidly perfused with warm KHS (37° C.; pH 7.4; gassed with 95% O2 in 5% CO2) in an open system with a constant flow of 4 ml/min maintained with a peristaltic pump. Alterations in perfusion pressure were continuously recorded in a four-channel polygraph (Narco Biosystems, Houston, Tex., USA) by means of a pressure transducer (P23 Gould Stratham, Oxnard, Calif., USA). After a 30 minute equilibration period, phenylephrine (1 to 5 μM) was infused by means of an infusion pump at a constant rate (0.1 ml/min) in order to achieve a stable perfusion pressure (100-120 mm Hg). Dose response curves were performed with vasodilators, i.e. acetylcholine (Ach; 10^-9 to 10^-3 M). Drugs were injected as 50 μL boluses, previously shown not to effect perfusion pressure in a side arm just above the cannula in the mesenteric artery. At least 6 separate experiments were performed each in duplicate.

[3] = test system: aortic rings; experiment: Rat aortic thoracic rings: acetylcholine relaxation after phenylephrine contraction, 4-week oral treatment; type: in vivo, alloxan-diabetic male Wistar rats; conditions: chronic oral administration, acetylcholine 10^-7 M, FIG. 3
Procedure: Male Wistar rats, weighing between 230-250 g, fed regular chow, with free access to water were separated in four groups (n=10/each). The first two groups, termed normoglycemic, were treated with saline (0.1 mL/100 g/12 h) by the oral route (intragastric gavage) or untreated for four weeks. The second two groups, hyperglycemic, were treated with saline (0.1 mL/100 g/12 h) or treated with D-chiro-inositol (20 mg/kg/12 h) under the same protocol. […] Diabetes was induced by a single intravenous injection of 45 mg/kg alloxan as described by Sannomiya et al., 1997 ( ). Diabetes was diagnosed 96 h after injection by blood glucose assay >200 mg/dL. All protocols were approved by the local committee and follow the Guide for the Care and Use of Laboratory Animals published by the US National Institutes of Health (NIH Publication No. 85-23, revised 1996). After completion of blood pressure measurements and vascular mesenteric bed collection, animals were sacrificed by exsanguination while under anesthesia. The thoracic aorta was excised and rapidly cleansed of connective tissue in Petri dishes containing warmed and gassed (95% O2 in 5% CO2) Krebs-Henseleit solution (KHS). The aorta segment was cut in small rings (≈5 mm) and mounted horizontally in 5 mL chambers for isometric recording of tension. The resting tension was adjusted to 1 g and the tissue allowed to equilibrate for 1 hour with a 15 min washout period. Tissues were kept in KHS at 37° C., gassed with the O2, CO2 mixture and isometric recordings made with a force displacement transducer connected to a four-channel polygraph (Narco Biosystems, Houston, Tex., USA). After the equilibration period, tissues were contracted with a submaximal concentration of phenylephrine (≈60% maximal response) until two similar responses were obtained in order to ensure reproducibility of the contraction curves. […] The acetylcholine dose response curve was repeated after a 60 min washout interval. All experiments were performed in the presence of indomethecin (10 μM) and guanethidine (10 μM) to prevent the production of vasoactive prostanoids. At least 6 separate experiments will be performed each in duplicate.

[4] = test system: ROS generated by xanthine/xanthine oxidase; experiment: Superoxide assay in vitro: xanthine/xanthine oxidase, NBT reduction; type: biochemical; conditions: low micromolar concentrations, FIG. 10
Procedure: Superoxide radicals were generated by the reaction of xanthine (1 mM) and xanthine oxidase ([…]) in air-saturated potassium phosphate buffer (pH 7.8 at 25° C.). Superoxide anions were detected by nitroblue tetrazolium (NBT—50 μM) which undergoes reduction by O2-. to its formazan. The rate of reduction was monitored spectrophotometrically at 560 nm with an Ultrospec 1000 (Pharmacia Biotech, Cambridge, England). SOD-1, by scavanging O2-. Diminishes the rate of reduction of NBT. The volume was fixed at 2 mL. Each experiment was run in duplicate.

[5] = test system: human erythrocytes and human cataractous lenses; conditions: cited from earlier work
[6] = test system: penile corpus cavernosus; experiment: Rabbit penile corpus cavernosus: relaxation to electrical field stimulation after 60 min incubation; design: species or system low dose alloxan-diabetic rabbit; conditions: 1 μM, EFS 2-16 Hz, FIG. 8
Procedure: Male California rabbits, weighing 2-2.5 kg, were provided by the vivarium of the Biomedicine Institute-UFC. Diabetes was induced by intraperitoneal injection of alloxan (150 mg/kg) and only animals with plasma glucose concentration above 200 mg/dl were included in the study. Age-matched euglycemic rabbits were used as controls.
Kidneys and aortic rings were harvested from diabetic rabbits after 3 weeks of alloxan injection. The animals were sacrificed under sodium pentobarbital anesthesia (Hypnol®, 150-200 mg/kg). […]. Rabbit kidneys were obtained from male New Zealand rabbits (1-1.5 kg) after cannulation of the renal artery in situ. [Thereafter the organ is rapidly perfused with warm KHS at 37° C., pH 7.4 and gassed with 95% O2 in 5% CO2 in an open system with a constant flow adjusted to yield 1 mL/g/min and maintained by a peristaltic pump. The alterations in perfusion pressure are continuously recorded in a four-channel polygraph (Narco Biosystems, Houston, Tex., USA) by means of a pressure transducer (P23 Gould Stratham, Oxnard, Calif., USA). After a 30 minute equilibration period, phenylephrine (1 to 5 μM) is infused by means of an infusion pump at a constant rate (0.1 ml/min) in order to achieve a stable perfusion pressure (100-120 mm Hg). Concentration-response curves are performed to the vasodilators, i.e. acetylcholine (Ach; 10^-9 to 10^-3 M). Drugs are injected as a 50 μL bolus, previously shown not to effect perfusion pressure in an arm side just above the cannula in the renal artery.] Following penectomy, the corpus cavernosum was dissected in Krebs solution and cleared of the tunica albuginea and surrounding tissues. Strips (2 cm) were mounted vertically in isometric baths (5 mL) in Krebs-Henseleit solution (37° C., pH 7.4 gassed with 95% O2 in 5% CO2) enriched with indomethecin (10 μM) and guanethedine (10 μM) in order to avoid prostanoid or neuronal norandrenergic interaction. After a 60 minute period for stabilization, tissues were precontracted with 10 μM phenylephrine in order to increase the basal tonus. Thereafter, frequency response curves to transmural electrical field stimulations (EFS—square wave pulses: 10 s train; 20 V, 0.5 ms, 2-16 Hz) were performed until two stable reproducible curves were attained. Then, frequency response curves were repeated after 60 min incubation with saline or 1 μM pinitol, DCI or db-DCI in the alloxan-diabetic rabbits. They are perfused with KHS containing 1 μM D-chiro-inositol, pinitol, dibutyryl D-chiro-inositol, myo-inositol or saline for 60 min. Dose response curves for acetylcholine are then performed following prior phenylephrine vasoconstriction as described. At least 6 separate experiments were performed each in duplicate.

Molecule | oxidative DNA damage [1] | effect on microvascular endothelial dysfunction [2] | effect on macrovascular endothelial dysfunction at intermediate acetylcholine concentration [3] | reduction of ROS generated by xanthine/xanthine oxidase [4] | also measured
CC(=O)N[C@@H](CS)C(=O)O [N-acetylcysteine] | cause oxidative DNA damage | – | – | – | –
O=P(O)(O)O[C@H]1[C@H](OP(=O)(O)O)[C@@H](OP(=O)(O)O)[C@H](OP(=O)(O)O)[C@@H](OP(=O)(O)O)[C@H]1OP(=O)(O)O [Phytic acid, Myoinositol hexaphosphate] | does not cause oxidative DNA damage even at high concentrations | – | – | – | –
O[C@H]1[C@H](O)[C@@H](O)[C@H](O)[C@@H](O)[C@H]1O [myoinositol, reference compound] | – | perhaps slightly better than pinitol and DCI | followed by DCI, pinitol and myoinositol in descending order of effect | reduced ROS in a low micromolar concentration dependant manner | effect on microvascular endothelial dysfunction ([2]; listed as myo-inositol): perhaps slightly better than pinitol and D-chiro-inositol; effect on macrovascular endothelial dysfunction at intermediate acetylcholine concentration ([3]; listed as myo-inositol): active at intermediate acetyl choline concentrations; reduction of ROS generated by xanthine/xanthine oxidase ([4]; listed as myo-inositol): equally effective; peroxidation effect of hydrogen peroxide [5]: decrease the peroxidation effect of hydrogen peroxide
CO[C@H]1[C@H](O)[C@@H](O)[C@@H](O)[C@H](O)[C@@H]1O [pinitol] | – | approximately equally effective | followed by DCI, pinitol and myoinositol in descending order of effect; also recorded: active at intermediate acetyl choline concentrations | equally effective; also recorded: reduced ROS in a low micromolar concentration dependant manner | restoration of vasorelaxant effect of electrical stimulation of the pudendal nerve [6]: restoration of vasorelaxant effect
O=c1c(O)c(-c2ccc(O)c(O)c2)oc2cc(O)cc(O)c12 [quercetin] | cause oxidative DNA damage | – | – | – | –
Vitamin A | cause oxidative DNA damage | – | – | – | –
